Legend:
[1] = tested on: L. amazonensis promastigotes; assay: Promastigote assay (MTT); assay type: cell-based, Leishmania amazonensis; details: Leishmania amazonensis, after 48 h of culture (table title)
Experimental: Leishmania amazonensis (MHOM/BR/77/LTB0016) were regularly isolated from infected mice and maintained in culture as promastigotes through weekly passages in Schneider’s medium (Sigma Aldrich, St. Louis, MO, USA) supplemented with 10% (v/v) heat-inactivated fetal calf serum, penicillin (100 UI/mL), and streptomycin (100 µg/mL) at 299K. Parasites were maintained until the 10th passage. The Animal Ethics Committee of the Oswaldo Cruz Foundation (license number L026/2015) approved this study.
Promastigotes of L. amazonensis (1 × 10^6 promastigotes/mL) in the 4th day on culture in the conditions described above were incubated with the chalcones serially diluted in culture medium (0.032% v/v DMSO at the highest concentration tested) on a 96-well cell culture plate (TPP™ test plate, Switzerland). The assayed concentrations ranged from 50 to 1.56 µM for all chalcone-thiosemicarbazones (5a–g) and for pentamidine (Sigma Aldrich, St. Louis, MO, USA). […] All compounds were analyzed in at least three experiments performed in triplicate. Pentamidine was used as the reference drug and diluted in the same concentrations used for 5a–g. The vehicle (DMSO) had no effect on the parasites.
The antileishmanial activity was evaluated by adding 22 µL of 3-(4,5-dimethylthiazol-2-yl)-2-5diphenyltetrazolium bromide (MTT) at 5 mg/mL (Sigma Aldrich, St. Louis, MO, USA) to each well. After 2 h, 80 µL of DMSO was added and the optical density was determined at a wavelength of 570 nm in a microplate reader (µQuant Bio-Tek Instruments®, Winooski). The assays were carried out in triplicate in 96-well plates (Costar, New York, USA). The inhibition percentage was estimated by the comparison with the non-treated control. The values for the inhibitory concentration for 50% of the promastigotes (IC50) were calculated by a sigmoidal model.

[2] = constant of substituent 4-X; cited from earlier work
[3] = target: T1, human serum albumin (HSA) (Homo sapiens, UniProt P02768); assay: HSA time-resolved fluorescence decays; assay type: binding; details: 5e 2.78 × 10^−5 M, HSA 1.00 × 10^−5 M, room temperature
T1 construct: purchased Sigma Aldrich, St. Louis, MO, USA
T1 sequence (P02768 25-609): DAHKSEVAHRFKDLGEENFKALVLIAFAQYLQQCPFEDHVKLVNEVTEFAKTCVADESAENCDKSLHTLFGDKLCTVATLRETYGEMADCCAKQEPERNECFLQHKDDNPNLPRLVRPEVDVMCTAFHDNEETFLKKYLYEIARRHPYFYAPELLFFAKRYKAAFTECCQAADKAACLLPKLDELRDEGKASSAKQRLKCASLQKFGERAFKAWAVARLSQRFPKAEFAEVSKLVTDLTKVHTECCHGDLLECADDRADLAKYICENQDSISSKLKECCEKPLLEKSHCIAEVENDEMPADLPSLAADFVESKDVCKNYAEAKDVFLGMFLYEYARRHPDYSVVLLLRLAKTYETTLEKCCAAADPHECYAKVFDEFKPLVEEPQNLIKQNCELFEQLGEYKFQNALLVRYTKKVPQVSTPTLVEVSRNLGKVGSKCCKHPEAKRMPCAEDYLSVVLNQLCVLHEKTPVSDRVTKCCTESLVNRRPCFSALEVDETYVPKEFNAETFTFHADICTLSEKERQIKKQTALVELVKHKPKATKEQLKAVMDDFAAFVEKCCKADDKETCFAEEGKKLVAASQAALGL
Experimental: The fluorimeter model FL920 CD from Edinburgh Instruments (Edinburgh, UK), equipped with an electrically pumped laser (EPL, with λexc = 280 ± 10 nm; a pulse of 850 ps with the energy of […]; monitoring emission at 340 nm) was used for time-resolved fluorescence decays measurement. The experiment was conducted for a 3.0 mL HSA solution (1.00 × 10^−5 M, in PBS) without and in the presence of 5e (2.78 × 10^−5 M) at room temperature.

[4] = tested on: L. amazonensis axenic amastigotes; assay: Axenic amastigotes assay (resazurin); assay type: cell-based; details: Leishmania amazonensis, 72 h of culture, table title says 48 h
Experimental: Promastigote forms of L. amazonensis (MHOM/BR/77/LTB0016) were grown to a stationary phase, washed once in phosphate buffer solution (PBS) (pH = 7.4) and adjusted to 5 × 10^6 parasites/mL in Schneider’s medium, supplemented with 20% fetal bovine solution (FBS) pH = 5.5 and maintained at 305K. After 5 days of cultivation, the rounded forms without free flagella were obtained and, after heat shock, were used in the appropriate assays. To evaluate the activity against axenic amastigotes, the parasites were incubated with increasing concentrations of the prototypes (diluted in DMSO) for 72 h at 305K. These assays were performed in triplicate in 96-well flat bottom plates (Falcon Co, Franklin Lakes, USA). The leishmanicidal activity was evaluated by adding 22 μl of resazurin to each well. After 4 h, the cell viability was measured as described above. Calculation of the IC50 values was determined in relation to the control by a sigmoidal model using GraphPad Prism 6.0 software.

[5] = target: T1, human serum albumin (HSA); assay: HSA circular dichroism (α-helix content); assay type: binding; details: 310K, 5e 2.78 × 10^−5 M
Experimental: Circular dichroism (CD) spectra were measured in the same equipment used in the steady-state fluorescence analysis, using 200–250 nm range at 310K (human body temperature). The experiment was conducted for a 3.0 mL HSA solution (1.00 × 10^−6 M, in PBS) in the absence and presence of 5e (2.78 × 10^−5 M). Each spectrum obtained was the average of three scans. The intensity of the signal from the CD spectra was expressed as mean residue ellipticity (MRE), defined according to Equation (7):(7) MRE=θ/10×n×l×Cp where θ, n, l and Cp are the observed CD (in millidegrees), number of amino acid residues (585 for HSA), optical pathlength of the cell (1.00 cm) and molar concentration of HSA (1.00 × 10^−6 M), respectively.
In order to calculate quantitative information on the percentage of changes in the α-helix content upon 5e binding, the resulting MRE at 208 and 222 nm (far-UV region) were analyzed according to Equations (8A) and (8B):(8A) α−helix%=(−MRE208−4000)/(33000−4000)×100 (8B) α−helix%=(−MRE222−2340)/30300×100

[6] = tested on: murine peritoneal macrophages; assay: Macrophage cytotoxicity (resazurin); assay type: cell-based; details: BALB/c, mouse, 48 h, pH 7.2
Experimental: Peritoneal macrophages from albino laboratory-bred strain (BALB/c) mice were obtained in RPMI 1640 medium at pH 7.2 (Gibco, New York, NY, USA) supplemented with 10% (v/v) heat-inactivated fetal bovine serum, 100 U/mL penicillin and 0.1 mg/mL of streptomycin and distributed (1 × 10^6 macrophages/well) in triplicate in 96-well plates (Falcon Co., Franklin Lakes, USA) and incubated for 1 h in a 5% CO2 atmosphere incubator at 310K. The supernatant was removed, and the compounds were added to the plate at concentrations from 10 µM to 50 µM. Next, the cultures were incubated for 48 h in a CO2 incubator at 310K. After incubation, the supernatant was removed and a resazurin solution (50 µM) was added to each well and incubated at 310K for 4 h. Furthermore, the fluorescence was measured using a wavelength of 560 nm for excitation and 590 nm for detection (Molecular Devices, Silicon Valley, USA). Results were expressed as the percentage of viable cells compared to the control cells treated with the highest DMSO dose used to dissolve the drugs. The 50% cytotoxic concentration (CC50) was calculated using GraphPad Prism 6.0 software (GraphPad Company, San Diego, CA, USA).

For `NC(=S)N/N=C(\C=C\c1ccc(Cl)cc1)c1ccccc1` [Compound 5e, (1E,2E)-3-(4′-chlorophenyl)-1-phenylprop-2-en-1-one thiosemicarbazone], the IC50 [1] is given as 5.22 ± 0.75 µM, the “Hammett constant σp” value [2] is given as 0.34 and the “Hansh constant π (lipophilicity)” value [2] is given as 0.71. For the same compound, the “Taft constant Es” value [2] was −0.97, the “molecular refractivity MR” value [2] was 0.60 and the “HSA fluorescence lifetime τ1 in the presence of ligand” value [3] was 1.77 ± 0.12 ns. For the same compound, the “HSA fluorescence lifetime τ2 in the presence of ligand” value [3] was 5.91 ± 0.16 ns, the IC50 [4] was 3.19 ± 1.2 µM and the “α-helix content of HSA:5e at 222 nm” value ([5]; HSA alone 53.5%) was 52.2%. The “α-helix content of HSA:5e at 208 nm” value ([5]; HSA alone 57.1%) was 55.2% and the “Macrophages LD50” value [6] was 32.48 ± 1.81 µM.

Source: publication PMC6920794, “Evaluation of Novel Chalcone-Thiosemicarbazones Derivatives as Potential Anti-Leishmania amazonensis Agents and Its HSA Binding Studies” (Biomolecules, 2019)
